How the values were obtained:
Culex pipiens molestus = assay: Test Example 10: efficacy test against Culex pipiens molestus; assay type: in vivo; settings: 24 h, 20 first-instar larvae in 100 mL, after one day, read-out: mortality rate against first-instar larvae of Culex pipiens molestus (converted)
Description: (§1) 5 parts of the compound of the present invention, 93.6 parts of dimethylformamide and 1.4 parts of polyoxyethylene alkyl aryl ether were mixed and dissolved to prepare Emulsion (1) including 5% of an active ingredient.
(§2) An insect mortality rate and a controlling rate were calculated by the numerical equations shown below. Insect mortality rate (%)=(Number of dead insects)/(Number of sample insects)×100 Controlling rate={1−(Nt)/(Nc)}×100
Emulsion (1) was diluted with water so that the concentration of the compound of the present invention was 10 ppm, to prepare a chemical liquid for testing. 20 first-instar larvae of Culex pipiens molestus were released in 100 mL of the chemical liquid. After one day, the number of dead insects was counted, and the insect mortality rate was calculated. The test was performed twice.

Plutella xylostella = assay: Test Example 3: efficacy test against Plutella xylostella (cabbage leaf soak); assay type: in vivo; settings: 72 h, cabbage leaves soaked 30 seconds, second-instar larvae, 3 days after inoculation, read-out: mortality rate against Plutella xylostella
Description: as §1, §2
Emulsion (1) was diluted with water so that the concentration of the compound of the present invention was 125 ppm. Cabbage leaves were soaked in the diluted liquid for 30 seconds. Subsequently, the cabbage leaves were put on Petri dishes, followed by inoculating 5 second-instar larvae of Plutella xylostella. The Petri dishes were placed in a thermostatic chamber at a temperature of 25° C. and humidity of 60%. Mortality was investigated 3 days after inoculation, and the insect mortality rate was calculated. The test was performed twice.

Aphis craccivora = assay: Test Example 4: efficacy test against Aphis craccivora (spray on black-eyed pea plants); assay type: in vivo; settings: in Vigna unguiculata, 96 h, sprayed on black-eyed pea plants with nymphs, 4 days after spraying, read-out: mortality rate against Aphis craccivora
Description: as §1, §2
Black-eyed pea plants were raised in No. 3 pots and the primary leaves were inoculated with nymphs of Aphis craccivora. Emulsion (1) was diluted with water so that the concentration of the compound of the present invention was 125 ppm. Subsequently, the aforementioned diluted liquid was sprayed on the black-eyed pea plants on which the nymphs of Aphis craccivora were parasitic. The aforementioned black-eyed pea plants were then placed in a thermostatic chamber with a temperature of 25° C. and humidity of 60%. Mortality was investigated 4 days after spraying was carried out, and the insect mortality rate of Aphis craccivora was calculated. The test was performed twice.

Nilaparvata lugens = assay: Test Examples 6 and 13: efficacy test against Nilaparvata lugens (rice seedling soak); assay type: in vivo; settings: 168 h, rice seedlings soaked 30 seconds, second-instar larvae, 7 days after inoculation, read-out: mortality rate against Nilaparvata lugens
Description: as §1, §2
(§3) Emulsion (1) was diluted with water so that the concentration of the compound of the present invention was 125 ppm. Rice seedlings were soaked in the diluted liquid for 30 seconds, and subjected to air-drying. Subsequently, the rice seedlings were placed in plastic cases, followed by inoculating 5 second-instar larvae of Nilaparvata lugens. The plastic cases were placed in a thermostatic chamber at a temperature of 25° C. and humidity of 65%. Mortality was investigated 7 days after inoculation, and the insect mortality rate was calculated. The test was performed twice.
as §3, with “8” for “125”

Phyllotreta striolata = assay: Test Examples 7 and 14: efficacy test against Phyllotreta striolata (spray on bok-choi seedlings); assay type: in vivo; settings: 168 h, sprayed on bok-choi seedlings, adults, 7 days after inoculation, read-out: mortality rate against adult Phyllotreta striolata
Description: as §1, §2
(§4) Emulsion (1) was diluted with water so that the concentration of the compound of the present invention was 125 ppm, to prepare a diluted liquid for testing. The aforementioned diluted liquid was sprayed on bok-choi seedlings (7th major leaf-development period) planted in No. 3 pots. After the bok-choi seedlings were subjected to air-drying, the seedlings were placed in plastic cups, followed by inoculating 10 adult Phyllotreta striolata. The plastic cups were stored in a thermostatic chamber at a temperature of 25° C. and humidity of 65%. Mortality was investigated 7 days after inoculation, and the insect mortality rate was calculated. The test was performed twice.
as §4, with “8” for “125”

Compound CCS(=O)(=O)c1cnc(-n2cncn2)nc1-c1ncc(-c2ccc(OC(F)(F)F)cc2)n1C [Compound No. 3, 5-(ethylsulfonyl)-4-(1-methyl-5-(4-(trifluoromethoxy)phenyl)-1H-imidazol-2-yl)-2-(1H-1,2,4-triazol-1-yl)pyrimidine] has a mortality at 10 ppm (Culex pipiens molestus) of 100%.

In the case of CCS(=O)(=O)c1cnc(-c2ncccn2)nc1-c1ncc(-c2ccc(OC(F)(F)F)cc2)n1C [Compound No. 7, 5-(ethylsulfonyl)-4-(1-methyl-5-(4-(trifluoromethoxy)phenyl)-1H-imidazol-2-yl)-2,2′-bipyrimidine], the mortality at 125 ppm (Plutella xylostella) is reported as ≥ 80%, the mortality at 125 ppm (Aphis craccivora) is reported as ≥ 80% and the mortality at 8 ppm (Nilaparvata lugens; 8 ppm) is reported as ≥ 80%. The mortality at 125 ppm (Nilaparvata lugens) was ≥ 80%, the mortality at 8 ppm (Phyllotreta striolata; 8 ppm) was ≥ 80% and the mortality at 125 ppm (Phyllotreta striolata) was ≥ 80%.

In the case of CCS(=O)(=O)c1ccc(-n2cnc(C)n2)nc1-c1ncc(-c2ccc(OC(F)(F)F)cc2)n1C [Compound No. a-8, 3-(ethylsulfonyl)-6-(3-methyl-1H-1,2,4-triazol-1-yl)-2-(1-methyl-5-(4-(trifluoromethoxy)phenyl)-1H-imidazol-2-yl)pyridine], the mortality at 10 ppm (Culex pipiens molestus) is reported as 100%, the mortality at 125 ppm (Plutella xylostella) is reported as ≥ 80% and the mortality at 125 ppm (Aphis craccivora) is reported as ≥ 80%. The mortality at 125 ppm (Nilaparvata lugens) was ≥ 80% and the mortality at 125 ppm (Phyllotreta striolata) was ≥ 80%.

CCS(=O)(=O)c1cc(C(F)(F)F)ccc1-c1nc(Br)c(-n2cc(I)cn2)n1C [b-1] showed a melting point of 202 to 204 °C.

Compound CCS(=O)(=O)c1cc(C(F)(F)F)ccc1-c1nc(Br)c(-n2cc(C(F)(F)F)cn2)n1C [b-2] has a melting point of 176 to 178 °C.

CCSc1cnc(-n2cncn2)nc1-c1ncc(-c2ccc(OC(F)(F)F)cc2)n1C [compound 2, 5-(ethylthio)-4-(1-methyl-5-(4-(trifluoromethoxy)phenyl)-1H-imidazol-2-yl)-2-(1H-1,2,4-triazol-1-yl)pyrimidine] showed a mortality at 10 ppm (Culex pipiens molestus) of 100%.

Source: patent publication US11180485B2, “Diaryl-azole compound and formulation for controlling harmful organism” (Nippon Soda Co., Ltd., priority 2016, dated 2021)
